How the values were obtained:
[1] = target: T1, Human PDGFRα, cytoplasmic domain (GST-PDGFRα) (Homo sapiens, UniProt P16234); assay: Human PDGFRα biochemical inhibition assay (off-chip Mobility Shift Assay)
T1 construct: made in house

[2] = target: T2, Human PDGFRβ, cytoplasmic domain (GST-PDGFRβ) (Homo sapiens, UniProt P09619); assay: Human PDGFRβ biochemical inhibition assay (off-chip Mobility Shift Assay)
T2 construct: made in house
Summary of the method: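 GST-tagged cytoplasmic domain (aa 557-1106) from baculovirus was incubated 1 h at room temperature with compound, CSKtide, ATP at Km and Mg²⁺ in HEPES buffer, pH 7.5. Phosphorylated and unphosphorylated peptide were separated by off-chip mobility shift, and the product ratio P/(P+S) gave percent inhibition.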

T1 sequence (P16234 550-1089 T674I): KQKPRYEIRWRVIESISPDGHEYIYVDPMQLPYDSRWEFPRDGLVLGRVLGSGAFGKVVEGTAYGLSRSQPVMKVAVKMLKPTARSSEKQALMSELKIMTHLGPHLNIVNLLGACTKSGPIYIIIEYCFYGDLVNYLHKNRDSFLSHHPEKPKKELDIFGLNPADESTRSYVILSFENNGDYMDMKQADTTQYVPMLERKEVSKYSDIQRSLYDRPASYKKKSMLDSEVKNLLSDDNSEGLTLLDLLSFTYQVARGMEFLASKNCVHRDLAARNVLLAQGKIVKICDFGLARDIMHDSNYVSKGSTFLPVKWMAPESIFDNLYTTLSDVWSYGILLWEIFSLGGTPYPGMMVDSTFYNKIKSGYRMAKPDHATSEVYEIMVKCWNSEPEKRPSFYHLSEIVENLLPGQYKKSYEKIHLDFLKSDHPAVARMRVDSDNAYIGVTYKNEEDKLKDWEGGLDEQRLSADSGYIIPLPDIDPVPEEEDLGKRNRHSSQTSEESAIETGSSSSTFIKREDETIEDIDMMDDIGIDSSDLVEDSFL
T2 sequence (P09619 with tags, fused parts or gaps): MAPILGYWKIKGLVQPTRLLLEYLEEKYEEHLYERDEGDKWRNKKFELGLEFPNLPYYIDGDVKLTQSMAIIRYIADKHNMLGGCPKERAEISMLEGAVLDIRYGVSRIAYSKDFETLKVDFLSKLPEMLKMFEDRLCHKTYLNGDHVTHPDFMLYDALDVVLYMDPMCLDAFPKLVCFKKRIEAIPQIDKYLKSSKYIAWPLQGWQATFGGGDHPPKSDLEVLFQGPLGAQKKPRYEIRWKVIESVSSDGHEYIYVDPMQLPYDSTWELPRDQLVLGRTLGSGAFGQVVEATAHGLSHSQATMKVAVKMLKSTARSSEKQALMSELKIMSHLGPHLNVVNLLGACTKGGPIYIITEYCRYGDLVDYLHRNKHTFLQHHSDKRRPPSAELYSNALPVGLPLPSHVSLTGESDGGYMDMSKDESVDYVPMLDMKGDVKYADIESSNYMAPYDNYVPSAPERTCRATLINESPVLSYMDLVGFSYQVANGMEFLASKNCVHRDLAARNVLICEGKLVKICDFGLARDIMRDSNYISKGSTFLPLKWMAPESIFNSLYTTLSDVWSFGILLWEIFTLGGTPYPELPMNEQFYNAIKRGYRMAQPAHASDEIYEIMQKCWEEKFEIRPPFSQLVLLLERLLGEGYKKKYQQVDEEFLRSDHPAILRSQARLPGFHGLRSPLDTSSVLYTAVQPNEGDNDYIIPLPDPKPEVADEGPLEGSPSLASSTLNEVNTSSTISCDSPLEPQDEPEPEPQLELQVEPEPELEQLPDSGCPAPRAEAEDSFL

SMILES	IC50 [1] [nM]	IC50 [2] [nM]
Cc1cncc(C(=O)Nc2cccc([C@H](C)Nc3cnc4cnn(C5CCOCC5)c4n3)c2)c1 [Compound 180, (S)-5-methyl-N-(3-(1-((1-(tetrahydro-2H-pyran-4-yl)-1H-pyrazolo[3,4-b]pyrazin-6-yl)amino)ethyl)phenyl) nicotinamide]	300 to 1000	≥ 1000
Cc1cnn(C(=O)Nc2cccc([C@H](C)Nc3cnc4cnn(C)c4n3)c2)c1 [Compound 168, (S)-4-methyl-N-(3-(1-((1-methyl-1H-pyrazolo[3,4-b]pyrazin-6-yl)amino)ethyl)phenyl)-1H-pyrazole-1-carboxamide]	< 300	≥ 1000
CCn1cc2ncc(N[C@@H](C)c3cc(NC(=O)Cc4cnc(C5CC5)c(F)c4)ccc3C)nc2n1 [Compound 708, (S)-2-(6-cyclopropyl-5-fluoropyridin-3-yl)-N-(3-(1-((2-ethyl-2H-pyrazolo[3,4-b]pyrazin-6-yl)amino)ethyl)-4-methylphenyl)acetamide]	< 300	300 to 1000
CCn1cc2ncc(N[C@@H](C)c3cc(NC(=O)Cc4ccc(Cl)c(C)n4)ccc3F)nc2n1 [Compound 668, (S)-2-(5-chloro-6-methylpyridin-2-yl)-N-(3-(1-((2-ethyl-2H-pyrazolo[3,4-b]pyrazin-6-yl)amino)ethyl)-4-fluorophenyl)acetamide]	< 300	< 300
COC(=O)c1ccc(C(=O)Nc2cccc([C@H](C)Nc3cnc4cnn(C)c4n3)c2)cn1 [Compound 212, methyl (S)-5-((3-(1-((1-methyl-1H-pyrazolo[3,4-b]pyrazin-6-yl)amino)ethyl)phenyl)carbamoyl) picolinate]	300 to 1000	≥ 1000
CCn1cc2ncc(N[C@@H](C)c3cccc(NC(=O)c4ccc(CN5CC6(COC6)C5)c(C5CC5)c4)c3)nc2n1 [Compound 505, (S)-4-((2-oxa-6-azaspiro[3.3]heptan-6-yl)methyl)-3-cyclopropyl-N-(3-(1-((2-ethyl-2H-pyrazolo[3,4-b]pyrazin-6-yl)amino)ethyl)phenyl)benzamide]	< 300	< 300
Cc1cncc(C(=O)Nc2cccc([C@H](C)Nc3cnc4cnn(-c5ccccc5)c4n3)c2)c1 [Compound 271, (S)-5-methyl-N-(3-(1-((1-phenyl-1H-pyrazolo[3,4-b]pyrazin-6-yl)amino)ethyl)phenyl)nicotinamide]	< 300	< 300
C[C@H](Nc1cnc2cnn(C)c2n1)c1cccc(NC(=O)c2ccc(OC(F)F)nc2)c1 [Compound 118, (S)-6-(difluoromethoxy)-N-(3-(1-((1-methyl-1H-pyrazolo[3,4-6]pyrazin-6-yl)amino)ethyl)phenyl)nicotinamide]	< 300	< 300
Cc1cc(C(=O)Nc2cccc([C@H](C)Nc3cnc4cnn(C)c4n3)c2)cnc1N1CC2(COC2)C1 [Compound 259, (S)-5-methyl-N-(3-(1-((1-methyl-1H-pyrazolo[3,4-b]pyrazin-6-yl)amino)ethyl)phenyl)-6-(2-oxa-6-azaspiro[3.3]heptan-6-yl) nicotinamide]	< 300	< 300
CCn1cc2ncc(N[C@@H](C)c3cccc(NC(=O)Nc4ccc(C(F)(F)F)nc4)c3)nc2n1 [Compound 736, (S)-1-(3-(1-((2-ethyl-2H-pyrazolo[3,4-b]pyrazin-6-yl)amino)ethyl)phenyl)-3-(6-(trifluoromethyl)pyridin-3-yl) urea]	< 300	< 300
CCn1cc2ncc(N[C@@H](C)c3cc(NC(=O)Cc4ccc(C)c(N5CCN(C)CC5)c4)ccc3C)nc2n1 [Compound 680, (S)-N-(3-(1-((2-ethyl-2H-pyrazolo[3,4-b]pyrazin-6-yl)amino)ethyl)-4-methylphenyl)-2-(4-methyl-3-(4-methylpiperazin-1-yl)phenyl) acetamide]	< 300	< 300
Cc1cncc(C(=O)Nc2ccc(F)c([C@H](C)Nc3cnc4cn(CC5CCNC5)nc4n3)c2)c1 (stereo partly drawn) [Compound 410, N-(4-fluoro-3-((1S)-1-((2-(pyrrolidin-3-ylmethyl)-2H-pyrazolo[3,4-b]pyrazin-6-yl)amino)ethyl)phenyl)-5-methylnicotinamide]	< 300	< 300
Cc1cncc(C(=O)Nc2cccc([C@H](C)Nc3cnc4[nH]c(C5CC5)nc4c3)c2)c1 [Compound 601, (S)-N-(3-(1-((2-cyclopropyl-3H-imidazo[4,5-6]pyridin-6-yl)amino)ethyl)phenyl)-5-methylnicotinamide]	< 300	< 300
Cc1cc2ncc(N[C@@H](C)c3cc(NC(=O)c4cnn(C5CCC5)c4)ccc3F)nc2s1 [Compound 613, (S)-1-cyclobutyl-N-(4-fluoro-3-(1-((6-methylthieno[2,3-b]pyrazin-3-yl)amino)ethyl)phenyl)-1H-pyrazole-4-carboxamide]	< 300	< 300
C[C@H](Nc1cnc2cnn(C)c2n1)c1cccc(NC(=O)c2cnc(C3CC3)s2)c1 [Compound 140, (S)-2-cyclopropyl-N-(3-(1-((1-methyl-1H-pyrazolo[3,4-b]pyrazin-6-yl)amino)ethyl)phenyl)thiazole-5-carboxamide]	< 300	< 300
CCn1cc2ncc(N[C@@H](C)c3cccc(NC(=O)c4ccc(CN5CCCC5)c(C)c4)c3)nc2n1 [Compound 404, (S)-N-(3-(1-((2-ethyl-2H-pyrazolo[3,4-b]pyrazin-6-yl)amino)ethyl)phenyl)-3-methyl-4-(pyrrolidin-1-ylmethyl) benzamide]	< 300	< 300
CCn1cc2ncc(N[C@@H](C)c3cccc(NC(=O)c4ccc(C(F)(F)F)c(OC)c4)c3)nc2n1 [Compound 440, (S)-N-(3-(1-((2-ethyl-2H-pyrazolo[3,4-b]pyrazin-6-yl)amino)ethyl)phenyl)-3-methoxy-4-(trifluoromethyl) benzamide]	< 300	< 300
CCn1cc2ncc(N[C@@H](C)c3cccc(NC(=O)Cc4ccc(OC)cn4)c3)nc2n1 [Compound 697, (S)-N-(3-(1-((2-ethyl-2H-pyrazolo[3,4-b]pyrazin-6-yl)amino)ethyl)phenyl)-2-(5-methoxypyridin-2-yl)acetamide]	300 to 1000	≥ 1000
CCn1cc2ncc(N[C@@H](C)c3cccc(NC(=O)Cc4cc(F)cc(Cl)c4)c3)nc2n1 [Compound 641, (S)-2-(3-chloro-5-fluorophenyl)-N-(3-(1-((2-ethyl-2H-pyrazolo[3,4-b]pyrazin-6-yl)amino)ethyl)phenyl)acetamide]	< 300	< 300
CCn1cc2ncc(N[C@@H](C)c3cc(NC(=O)Cc4cc(CN5CCCC5)c(C)cn4)ccc3C)nc2n1 [Compound 727, (S)-N-(3-(1-((2-ethyl-2H-pyrazolo[3,4-b]pyrazin-6-yl)amino)ethyl)-4-methylphenyl)-2-(5-methyl-4-(pyrrolidin-1-ylmethyl)pyridin-2-yl)acetamide]	≥ 1000	≥ 1000

The remaining lines, values ahead:

IC50 [1] [nM]	IC50 [2] [nM]	SMILES
< 300	< 300	CCn1cc2ncc(N[C@@H](C)c3cc(NC(=O)c4cc(C)c(CN5CCOCC5)c(F)c4)ccc3C)nc2n1 [Compound 526, (S)-N-(3-(1-((2-ethyl-2H-pyrazolo[3,4-b]pyrazin-6-yl)amino)ethyl)-4-methylphenyl)-3-fluoro-5-methyl-4-(morpholinomethyl)benzamide]
< 300	< 300	Cc1cncc(C(=O)Nc2cccc([C@H](C)Nc3cnc4[nH]nc(C)c4n3)c2)c1 [Compound 16, (S)-5-methyl-N-(3-(1-((3-methyl-1H-pyrazolo[3,4-b]pyrazin-5-yl)amino)ethyl)phenyl)nicotinamide]
< 300	< 300	CCn1cc2ncc(N[C@@H](C)c3cccc(NC(=O)c4ccc(CN5CC6(COC6)C5)c(Cl)c4)c3)nc2n1 [Compound 415, (S)-4-((2-oxa-6-azaspiro[3.3]heptan-6-yl)methyl)-3-chloro-N-(3-(1-((2-ethyl-2H-pyrazolo[3,4-b]pyrazin-6-yl)amino)ethyl)phenyl)benzamide]
< 300	≥ 1000	Cc1cc(C(=O)Nc2cccc([C@H](C)Nc3cnc4cnn(C)c4n3)c2)cnn1 [Compound 132, (S)-6-methyl-N-(3-(1-((1-methyl-1H-pyrazolo[3,4-b]pyrazin-6-yl)amino)ethyl)phenyl)pyridazine-4-carboxamide]
< 300	< 300	CNc1ncc(C(=O)Nc2cccc([C@H](C)Nc3cnc4cnn(C)c4n3)c2)cc1C [Compound 130, (S)-5-methyl-N-(3-(1-((1-methyl-1H-pyrazolo[3,4-b]pyrazin-6-yl)amino)ethyl)phenyl)-6-(methylamino) nicotinamide]
< 300	< 300	Cc1ncc(C(=O)Nc2cccc([C@H](C)Nc3cnc4cnn(C)c4n3)c2)s1 [Compound 138, (S)-2-methyl-N-(3-(1-((1-methyl-1H-pyrazolo[3,4-b]pyrazin-6-yl)amino)ethyl)phenyl)thiazole-5-carboxamide]
< 300	< 300	CCn1nc(C(C)C)cc1C(=O)Nc1cccc([C@H](C)Nc2cnc3cnn(C)c3n2)c1 [Compound 167, (S)-1-ethyl-3-isopropyl-N-(3-(1-((1-methyl-1H-pyrazolo[3,4-b]pyrazin-6-yl)amino)ethyl)phenyl)-1H-pyrazole-5-carboxamide]
< 300	< 300	CCn1cc2ncc(N[C@@H](C)c3cc(NC(=O)c4ccc(CN5CCCC5)c(C)c4)ccc3F)nc2n1 [Compound 470, (S)-N-(3-(1-((2-ethyl-2H-pyrazolo[3,4-b]pyrazin-6-yl)amino)ethyl)-4-fluorophenyl)-3-methyl-4-(pyrrolidin-1-ylmethyl)benzamide]
< 300	< 300	CCn1cc2ncc(N[C@@H](C)c3cc(NC(=O)Cc4ccc(F)c(C)n4)ccc3F)nc2n1 [Compound 674, (S)-N-(3-(1-((2-ethyl-2H-pyrazolo[3,4-b]pyrazin-6-yl)amino)ethyl)-4-fluorophenyl)-2-(5-fluoro-6-methylpyridin-2-yl) acetamide]
